Assay results reported in patent US20250073210A1, “Use of Ergothioneine for Enhancing Glutathione Level” (priority 2022, published 2025).
Where “and” joins values, the source holds several entries; their conditions need not be identical. Equal entries are not always repeated. Where two headings read alike, the source gives them in different places.

Tests used:
[1] = Preliminary cytotoxicity assay (WST-8 reduction, viability and morphological observations); assay type: cell-based, human; conditions: human, normal human epidermal keratinocytes (NHEK)
Experimental: (§1) In the present study, the effects of compound L-Ergothioneine were investigated in normal human epidermal keratinocytes (NHEK) under basal or UV-irradiated conditions. More specifically, the effects of this compound were evaluated using RT-qPCR technology. Extracted mRNA was analyzed using a PCR array (“mQPA-8-Nrf2”) for the analysis of 8 target genes (including 1 housekeeping gene) selected for their role in Nrf2 pathway. Prior to this assay, a preliminary cytotoxicity assay was performed on compound L-Ergothioneine and Resveratrol (reference in basal condition) using a standard WST-8 reduction assay, in order to determine the concentrations to be tested in this study.
(§2) Cell type: Normal human epidermal keratinocytes (NHEK) used at the 3rd passage. Culture conditions: 37° C., 5% CO2. Culture medium: Keratinocyte-SFM optimized for the assay, supplemented with Epidermal Growth Factor Pituitary extract. Assay medium: Keratinocyte-SFM optimized for the assay. Test compound: L-Ergothioneine in ultrapure water. Test concentrations: 0.5, 3 and 30 μM. Reference: Resveratrol. Test concentration: 20 μM.
(§3) Cell type: NHEK in assay medium. Incubation time: 24 hours.
(§4) After treatment, the cells were incubated with WST-8 (highly water-soluble tetrazolium salt) reduced in a water-soluble orange colored product (formazan) by succinate dehydrogenase (mitochondrial enzyme). This transformation is proportional to the number of living cells and their metabolic activity. The optical density (OD) of the extracts at 450 nm was recorded with a spectrometer (VERSAmax, Molecular Devices).

[2] = test system: normal human epidermal keratinocytes (NHEK); assay: as above; assay type: cell-based; conditions: 24 hours; for Viability (%): single replicates
Experimental: as §1, §2, §3, §4

NHEK = assay: Morphological observation of cells at the end of the culture, irradiated condition; assay type: cell-based, human
Experimental: (§5) Keratinocytes were seeded in 24-well plates and cultured for 24 hours in culture medium and in assay medium for a further 24 hours. The medium was then replaced by assay medium containing or not (control) the compound or Resveratrol and cells were pre-incubated for 24 hours.
(§6) After pre-incubation, the medium was then removed and replaced by a PBS solution. For basal conditions, the plate was kept in the dark during the irradiation time. For irradiated conditions, the cells were irradiated with UVB−275 mJ/cm^2 (+UVA−2 J/cm^2) using a SOL500 Sun Simulator equipped with an H2 filter (Dr. Hönle, AG). After irradiation time, the treatments were renewed, and the cells were incubated for 24 hours. All experimental conditions were performed in n=3. At the end of incubation, the cells were washed in phosphate buffered saline (PBS) solution and immediately frozen at −80° C.

RPS28 = assay: RT-qPCR PCR array mQPA-8-Nrf2, housekeeping gene RPS28; assay type: cell-based, human; conditions: basal conditions, 20 μM
Experimental: as §1, §2, §5, §6
(§7) The expression of markers was analyzed using RT-qPCR method on total RNA extracted from the cell monolayers of each experimental condition (before RNA extraction, the replicates of the same experimental condition were pooled). The analysis of transcripts was performed in n=2 using a PCR array dedicated to research and adapted to ‘screening’ format and targeting 8 genes selected for their role in Nrf2 pathway.
(§8) Total RNA was extracted from each sample using TriPure Isolation Reagent® according to the supplier's instructions. The amount and quality of RNA were evaluated using capillary electrophoresis (Bioanalyzer 2100, Agilent technologies). The complementary DNA (cDNA) was synthetized by reverse transcription of total RNA in presence of oligo(dT) and «Transcriptor Reverse Transcriptase» (Roche Molecular System Inc.). The cDNA quantities were then adjusted before PCR.
(§9) The PCR (Polymerase Chain Reaction) were performed using the «LightCycler®» system (Roche Molecular System Inc.) according to the supplier's instructions. The reaction mix (10 μl final) was prepared as follows: 2.5 μl of cDNA; primers (forward and reverse); reagent mix (Roche) containing taq DNA polymerase, SYBR Green I and MgCl2.
(§10) The incorporation of fluorescence in amplified DNA was continuously measured during the PCR cycles. […] The value selected for RE calculations is the “output point” (Ct) of the fluorescence curve. For a considered marker, the highest is the cycle number; the lowest is the mRNA quantity. The RE value was calculated with the formula: (½^number of cycles)×10^6. The PCR array used in the present study included 1 reference gene (RPS28).

TXN = assay: RT-qPCR PCR array mQPA-8-Nrf2, TXN expression in NHEK; assay type: cell-based, human; conditions: basal conditions, 20 μM
Experimental: as §1, §2, §5, §6, §7, §8, §9, §10

GCLC = assay: RT-qPCR PCR array mQPA-8-Nrf2, GCLC expression in NHEK; assay type: cell-based, human; conditions: basal conditions, 20 μM
Experimental: as §1, §2, §5, §6, §7, §8, §9, §10

HMOX1 = assay: RT-qPCR PCR array mQPA-8-Nrf2, HMOX1 expression in NHEK; assay type: cell-based, human; conditions: basal conditions, 20 μM
Experimental: as §1, §2, §5, §6, §7, §8, §9, §10

Nrf2 pathway = assay: Gene expression profile of keratinocytes (mQPA-8-Nrf2 array as a whole); assay type: cell-based, human; conditions: basal, tested at 20 μM
Experimental: as §1, §2, §5, §6, §7

MT1G = assay: RT-qPCR PCR array mQPA-8-Nrf2, MT1G expression in NHEK; assay type: cell-based, human; conditions: basal conditions, 20 μM
Experimental: as §1, §2, §5, §6, §7, §8, §9, §10

GCLM = assay: RT-qPCR PCR array mQPA-8-Nrf2, GCLM expression in NHEK; assay type: cell-based, human; conditions: basal conditions, 20 μM
Experimental: as §1, §2, §5, §6, §7, §8, §9, §10

TXNRD1 = assay: RT-qPCR PCR array mQPA-8-Nrf2, TXNRD1 expression in NHEK; assay type: cell-based, human; conditions: basal conditions, 20 μM
Experimental: as §1, §2, §5, §6, §7, §8, §9, §10

NQO1 = assay: RT-qPCR PCR array mQPA-8-Nrf2, NQO1 expression in NHEK; assay type: cell-based, human; conditions: basal conditions, 20 μM
Experimental: as §1, §2, §5, §6, §7, §8, §9, §10

[3] = 24 hours of incubation, read-out: Viability Mean (%)
[4] = single replicates, 24 hours, read-out: Viability (%)

`Oc1ccc(C=Cc2cc(O)cc(O)c2)cc1` [Resveratrol] showed a viability at 24 h, 0.247 µM [1, 3] of 99%, a viability at 24 h, 0.741 µM [1, 3] of 101% and a viability at 24 h, 2.2 µM [1, 3] of 106%. It also gave a viability at 24 h, 6.7 µM [1, 3] of 106%, a viability at 24 h, 20 µM [1, 3] of 93% and a viability at 24 h, 60 µM [1, 3] of 65%. The viability at 24 h, 180 µM [1, 3] was 31%, the viability at 24 h, 540 µM [1, 3] was 8% and the viability at 24 h, 0.247 µM [1, 4] was 101%. For the same compound, the viability at 24 h, 0.741 µM [1, 4] was 102%, the viability at 24 h, 2.2 µM [1, 4] was 109% and the viability at 24 h, 6.7 µM [1, 4] was 109%. The viability at 24 h, 20 µM [1, 4] was 97%, the viability at 24 h, 60 µM [1, 4] was 65% and the viability at 24 h, 180 µM [1, 4] was 32%. The viability at 24 h, 540 µM [1, 4] was 8%, the Morphological observations ([2]; 0.247 μM) was “+” and the Morphological observations ([2]; 0.741 μM) was “+”. For the same compound, the Morphological observations ([2]; 2.2 μM) was “+”, the Morphological observations ([2]; 6.7 μM) was “+” and the Morphological observations ([2]; 20 μM) was “+”. For the same compound, the Morphological observations ([2]; 540 μM) was “−, *”, the “Viability (%)” value ([2]; 0.247 μM) was 98% and the “Viability (%)” value ([2]; 0.741 μM) was 100%. The “Viability (%)” value ([2]; 2.2 μM) was 105%, the “Viability (%)” value ([2]; 6.7 μM) was 108% and the “Viability (%)” value ([2]; 20 μM) was 88%. The “Viability (%)” value ([2]; 60 μM) was 67% and 64%, the “Viability (%)” value ([2]; 180 μM) was 29% and the “Viability of NHEK under irradiated condition” value (NHEK) was “strongly impacted”. For the same compound, the “RPS28 % Control RPS28” value (RPS28) was 100 % Control, the “TXN % Control RPS28” value (TXN) was 345 % Control and the “GCLC % Control RPS28” value (GCLC) was 554 % Control. The “HMOX1 % Control RPS28” value (HMOX1) was 451 % Control, the “Expression of genes involved in oxidative and cellular stress response” value (Nrf2 pathway) was “stimulation of the expression of all genes (except MT1G)” and the “MT1G % Control RPS28” value (MT1G) was 79 % Control. The “GCLM % Control RPS28” value (GCLM) was 736 % Control, the “TXNRD1 % Control RPS28” value (TXNRD1) was 492 % Control and the “NQO1 % Control RPS28” value (NQO1) was 1468 % Control.
